From patent US10220008B2, “Treatment and prevention of stroke and other neurological disorders” (STC.UNM, priority 2013, dated 2019)
“Also recorded” adds a separate entry of the source. Structures can show the parent of a compound that is named as a salt.

Tests used:
primary cortical neurons [1] = test: Secondary screening: TUNEL apoptosis assay after 2 hours OGD, compounds given at or after reoxygenation; format: cell-based, Spraque-Dawley rat; conditions: for dose providing maximum neuroprotection against OGD-induced apoptosis (optimal dose): at reoxygenation after 2 hours OGD; for neuroprotection when administered after reoxygenation onset (time course): optimal dose given 0, 15, 30, 60 minutes after reoxygenation onset after 2 hours OGD
Method: Cortical neurons were obtained from Spraque-Dawley rat embryos at day 18 of gestation. Cortices were triturated and pre-plated 4 times for 30 minutes in 150 mm vacuum-plasma treated dishes (BD). During these pre-plating steps, primarily non-neuronal cells adhere to the dish, thereby enriching the neuronal population. Enriched neurons were plated in Neurobasal medium containing 2% fetal bovine serum (FBS), 25 μM Glutamax, and penicillin-streptomycin (Gibco) in poly-D-lysine-coated white clear-bottomed 96-well plates or 24-well plates (Becton-Dickinson) at a density of 50×10^3/cm^2. Twenty-four hours later (1 day in vitro, 1 DIV), 50% of the medium was replaced with Neurobasal medium, 2% B27 (Gibco), and 4 μM cytosine arabinoside (AraC) (2 μM AraC final). At 5 DIV, 50% of the medium was replaced with Neurobasal, 2% B27. At 7 DIV, cortical cultures were 98% neurons as assessed by microtubule-associated protein 2 (MAP2) antibody labeling and flow cytometry analysis (data not shown). In vitro experiments were performed in quadruplicate and results are shown as means with standard deviation.
Neuroprotection by candidate compounds was assayed by measurement of apoptosis using terminal deoxynucleotidyl transferase dUTP nick end labeling (TUNEL) reagents as described previously.^6 At 7 DIV, primary neurons grown on poly-D-lysine-coated 22 mm-diameter cover slips in 24-well plates underwent 2 hours of OGD and were treated with a range of doses of each compound at reoxygenation. Compounds providing greater than 2-fold protection over vehicle were then administered at the optimal dose after OGD at intervals of 0, 15, 30, and 60 minutes post-reoxygenation.

[2] = system: spontaneously hypertensive rats (SHR); test: Middle cerebral artery occlusion (MCAO) model of transient focal ischemia; format: in vivo, rat
Text: All animal procedures were approved by the University of New Mexico Institutional Animal Care and Use Committee and were in compliance with federal guidelines. Male spontaneously hypertensive rats (SHR) weighing 290-300 g were obtained from Charles River Laboratories. Animals were anesthetized with 2% isoflurane inhalant during all surgical procedures. The right common carotid artery (CCA) was ligated approximately 6 mm caudal to the bifurcation of the external and internal carotid arteries. With a vascular clamp in place on the CCA immediately caudal to the bifurcation, an incision was made in the CCA 5 mm caudal to the clamp and a nylon suture (Doccol Corporation) 30 mm in length with a 2-3 mm silicone coated tip (0.39 mm diameter) was advanced into the CCA lumen and secured in place with 2 4-0 silk sutures spaced 3 mm apart and tied loosely around the CCA caudal to the clamp. The clamp was removed and the suture advanced into the internal carotid artery until resistance was felt. In this position, the filament occludes the MCA origin and MCA territory becomes ischemic. The suture was secured with the 2 silk sutures around the CCA. […] Edema-corrected infarct volume was calculated by subtracting the area of non-infarcted tissue in the ipsilateral hemisphere from the total volume of the contralateral hemisphere. Infarct volume was quantified using Image J software.

primary cortical neurons [3] = test: High-throughput oxygen-glucose deprivation (OGD) screen of the Prestwick Chemical Library, CytotoxGlo dead/live cell protease ratio; format: cell-based, Spraque-Dawley rat; conditions: pretreatment, 10 μM, pure cortical neurons
Method: The Prestwick Chemical Library (Prestwick Chemical) was screened for neuroprotection in OGD by pre-treating 7 DIV cortical neurons in 96-well dishes with 10 μM compounds for 30 minutes. All liquid handling was automated and performed by a Beckman Coulter Biomek NX multichannel pipettor. The pretreatment medium was transferred to a clean plate for storage and was kept at 37° C. in a 5% CO2 environment during the OGD exposure. After pretreatment, cells were washed 3 times with deoxygenated glucose-free Hank's buffered saline solution (HBSS), pH 7.4, to remove glucose and oxygen and were covered with 100 μl HBSS. HBSS was deoxygenated in a gas washing bottle with 60 liters of 95% nitrogen, 5% CO2 per 250 ml HBSS. HBSS was maintained at 37° C. during deoxygenation in a water bath. Compounds were added to wells and plates were sealed with sealing tape and placed in a 37° C. incubator for 2 hours (OGD). After 2 hours, HBSS was removed and pretreatment medium was returned to the wells. After 24 hours, neuronal death was quantified using CytotoxGlo reagents (Promega) and a Victor^3 V luminometer (Perkin Elmer) according to the manufacturer's instructions. Eight wells per dish were used as DMSO-treated vehicle-only controls. […]

Row | Compound | dose providing maximum neuroprotection against OGD-induced apoptosis (optimal dose) (primary cortical neurons [1]; 0.01 to 100 nM tested) | neuroprotection when administered after reoxygenation onset (time course) (primary cortical neurons [1]) | neuroprotection in the high-throughput screen (in words) (primary cortical neurons [3]) | further results
1 | C[C@H](COc1ccccc1)N[C@H](C)[C@H](O)c1ccc(O)cc1 (racemic) [Isoxsuprine hydrochloride, 4-{1-hydroxy-2-[(1-methyl-2-phenoxyethyl)amino]propyl}phenol] | 1 nM | no loss of efficacy; also recorded: no decrease in neuroprotection; also recorded: no loss of neuroprotection | – | total edema-corrected infarct volume ([2]; 1 mg/kg IV at onset of reperfusion after 90-minute MCAO, 24 hours reperfusion, vehicle 279±25, n=7): 137±18 mm^3; reduction of infarct volume versus vehicle ([2]; single dose 1 mg/kg IV at reperfusion): reduced infarct volume by half
2 | NC(=O)OCC(O)COc1ccc(Cl)cc1 (centres unmarked) [Chlorphenesin carbamate] | – | no decrease in neuroprotection; also recorded: no loss of neuroprotection | – | dose providing maximum neuroprotection against OGD-induced apoptosis (optimal dose) (primary cortical neurons [1]; 100 to 300 μM tested): 200000 nM
3 | CCNCC(O)c1cccc(O)c1 (centres unmarked) [Etilefrine hydrochloride] | 1 nM | – | – | neuroprotection when administered after reoxygenation onset (time course) (primary cortical neurons [1]; listed as etilifrine, hydrochloride): significantly decreased; also recorded: significant decrease in neuroprotection
4 | CN1CCN2c3ccccc3Cc3ccccc3C2C1 (centres unmarked) [Mianserine hydrochloride] | – | – | highly protective | neuroprotection in the secondary screen (in words) (primary cortical neurons [1]; given at reoxygenation): ineffective
5 | CC(C)(C)NCC(O)c1cc(Cl)c(N)c(Cl)c1 (centres unmarked) [clenbuterol] | – | – | not identified as a neuroprotective compound | –
